This is an account of results in patent publication US10993999B2, “Materials and methods for producing improved lentiviral vector particles” (IMMUNE DESIGN CORP., priority 2012, dated 2021).

Where two headings read alike, the source gives them in different places.

In the test the test system is PBMC-derived human dendritic cells. Format: cell-based.

For `Cc1cn([C@H]2C[C@H](N=[N+]=[N-])[C@@H](CO)O2)c(=O)[nH]c1=O` [AZT], the “effect of reverse-transcriptase inhibitor on transduction” value (integration-deficient VSV-G-pseudotyped particles, 200 ng p24) is on record as “inhibited”.

Turning to `Cc1ccnc2c1NC(=O)c1cccnc1N2C1CC1` [Nevirapine], where the note is “integration-competent VSV-G-pseudotyped particles, 20 ng p24”, the “effect of reverse-transcriptase inhibitor on transduction” value is “inhibited”.

B1: Vpx: SIVmac Vpx protein (SEQ ID NO: 44), SAMHD1 inhibitor packaged into the lentivirus particles (protein)
chain: MSDPRERIPPGNSGEETIGEAFEWLNRTVEEINREAVNHLPRELIFQVWQRSWEYWHDEQGMSQSYVKYRYLCLMQKALFMHCKKGCRCLGEGHGAGGWRPGPPPPPPPGLA
modifications: Simian immunodeficiency virus
As to B1, the “role of Vpx in transduction of human dendritic cells” value (integration-competent VSV-G-pseudotyped lentiviral vector particles) is “enhanced” and the “role of Vpx in transduction of human dendritic cells” value (integration-deficient VSV-G-pseudotyped lentiviral particles) was “required”.
